The subject of data set [1] is mice. As to the kind of experiment: Maximal Electroshock Seizure Test (tonic-extensor convulsions of hind legs). To be noted: Mus musculus; antiepileptic action; oral, electric shock 1 hour after dosing (200 Hz, 50 mA, 0.2 second). The class given is in vivo, ddy Male mice. Here is the method: ddy Male mice (body weight: 25-30 g) were used in groups each of which consisted of 5-10 mice. A test compound was orally administered. One hour later, an electric shock (200 Hz, 50 mA, 0.2 second) was applied through corneal electrodes. […] Antiepileptic action (%) was calculated in accordance with the following calculation formula, and ED50 (mg/Kg) was determined therefrom. [formula]
Background: The maximal electroshock test induces tonic seizures with an electrical stimulus.

Data set [2] in a line: in vivo. The note with it: mouse, po. Details: species or system ddy Male mice. As for the experimental part:
ddy Male mice (body weight: 25-30 g) were used in groups each of which consisted of 5-10 mice. A test compound was orally administered One hour later, each mouse was placed on a rod which rotated a full turn per second. Mice which fell down within 120 seconds were counted. Rotorod action (%) was calculated in accordance with the following calculation formula, and ED50 (mg/Kg) was determined therefrom. [formula]

Data set [3] in a line: Acute Toxicity (death within 5 days). The note with it: mouse, in vivo, oral, death in 5 days (LD50 in the method text), read-out: ED50. As for the experimental part: ddy Male mice (body weight: 25-30 g) were used in groups each of which consisted of 5-6 mice. A test compound was orally administered. Mice which died in 5 days were counted. Death rate (%) wa calculated in accordance with the following calculation formula, and LD50 (mg/Kg) was determined therefrom. [formula]

Data set [4] is described as follows: in vivo. On the set-up: species or system ddy Male mice. To be noted: mouse, po. As for the experimental part: ddy Male mice (body weight: 25-30 g) were used in groups each of which consisted of 5-10 mice. A test compound was orally administered. One hour later, each mouse was caused to hold with the fore paws thereof a stainless steel wire whose diameter was 1.5 mm. […] Traction activity (%) was calculated in accordance with the following calculation formula, and ED50 (mg/Kg) was determined therefrom. [formula]
This is another data set of the same source.

Where a name gives a salt, the structure may show the parent alone.

Usually ED50 stands for the midpoint of the dose-response relation. Molecule `Cl.c1ccc(-c2cc(-n3cc(Cn4ccnc4)c4ccccc43)on2)cc1` [Example 1, 1-(3-phenyl-5-isoxazolyl)-3-(1-imidazolyl)methylindole hydrochloride] had an ED50 in data set [1] of 9 mg/kg. The TD50 at 1 h was 500 mg/kg in data set [2] and greater than 750 mg/kg in data set [4]. The LD50 at 120 h in data set [3] was greater than 1000 mg/kg.

In data set [1], `Cl.Fc1ccc(-c2cc(-n3cc(Cn4ccnc4)c4ccccc43)on2)cc1` [Example 3, 1-{3-(4-Fluorophenyl)-5-isoxazolyl)-3-(1-imidazolyl)methylindole hydrochloride] showed an ED50 of 20 to 40 mg/kg.

In data set [1], `Cl.Clc1ccc(-c2cc(-n3cc(Cn4ccnc4)c4ccccc43)on2)cc1` [Example 4, 1-{3-(4-Chlorophenyl)-5-isoxazolyl}-3-(1-imidazolyl)methylindole hydrochloride] had an ED50 of 20 to 40 mg/kg.

With `Cc1ccc(-c2cc(-n3cc(Cn4ccnc4)c4ccccc43)on2)cc1` [Example 5, 1-(3-(p-Toluyl)-5-isoxazolyl}-3-(l-imidazolyl)-methylindole hydrochloride], the 50% effective dose (ED50) in data set [1] was 16 mg/kg.

In data set [1], `COc1ccc(-c2cc(-n3cc(Cn4ccnc4)c4ccccc43)on2)cc1.Cl` [Example 6, 1-{3-(4-Methoxyphenyl)-5-isoxazolyl}-3-(1-imidazolyl)methylindol hydrochloride] returned an ED50 of 7 mg/kg. Moreover, the TD50 at 1 h in data set [2] and in data set [4] was greater than 750 mg/kg throughout. The LD50 at 120 h in data set [3] was greater than 1000 mg/kg.

Consider `Cl.N#Cc1ccc(-c2cc(-n3cc(Cn4ccnc4)c4ccccc43)on2)cc1` [Example 7, 1-(3-(4-Cyanophenyl)-5-isoxazolyl)-3-(1-imidazolyl)methylindole hydrochloride], for which the ED50 in data set [1] fell in the range of 20 to 40 mg/kg.

For `Cl.FC(F)(F)c1ccc(-c2cc(-n3cc(Cn4ccnc4)c4ccccc43)on2)cc1` [Example 8, 1-{3-(4-Trifluoromethylphenyl)-5-isoxazolyl}-3-(1-imidazolyl)methylindole hydrochloride], in data set [1], the ED50 was in the range of 20 to 40 mg/kg.

On to `Cl.Clc1ccccc1-c1cc(-n2cc(Cn3ccnc3)c3ccccc32)on1` [Example 9, 1-{3-(2-Chlorophenyl)-5-isoxazolyl}-3-(1-imidazolyl)methylindole hydrochloride], for which, in data set [1], the ED50 was in the range of 20 to 40 mg/kg.

Take `Cl.Clc1cccc(-c2cc(-n3cc(Cn4ccnc4)c4ccccc43)on2)c1` [Example 10, 1-{3-(3-Chlorophenyl)-5-isoxazolyl)-3-(1-imidazolyl)methylindole hydrochloride]: the 50% effective dose (ED50) in data set [1] lay in the range of 20 to 40 mg/kg.

`COc1cccc(-c2cc(-n3cc(Cn4ccnc4)c4ccccc43)on2)c1.Cl` [Example 11, 1-(3-(3-Methoxyphenyl)-5-isoxazolyl}-3-(1-imidazolyl)methylindole hydrochloride]: the ED50 in data set [1] was 14 mg/kg. The TD50 at 1 h in data set [2] and in data set [4] was greater than 750 mg/kg throughout. The LD50 at 120 h in data set [3] is greater than 1000 mg/kg.

As to `O=C1NC(=O)C(c2ccccc2)(c2ccccc2)N1` [Phenytoin.Na, reference compound], it took a dose of 7 mg/kg to reach the 50% effect level in data set [1] (ED50). For the same molecule, the TD50 at 1 h in data set [2] was 186 mg/kg; in data set [4], 350 mg/kg. In addition, the LD50 at 120 h in data set [3] was in the range of 300 to 500 mg/kg.

The record behind these values is patent US5112841A, “Imidazole derivatives and antiepileptics comprising said imidazole derivatives as effective ingredients” (Mitsui Toatsu Chemicals, Incorporated, priority 1990, dated 1992).
